This assay addresses T1, PIk1 (Homo sapiens, UniProt P53350).
T1 construct: His tag (histidine tag) (N); made in house; host or cells: SF9 insect cells
Put plainly: PIk1 kinase activity inhibition assay (33P incorporation into alpha casein, flash plates). Particulars: recombinant N-terminally histidine-tagged PIk1, alpha casein as substrate, 100 nM Li-ATP, 80 minutes at 30°C. It counts as biochemical. How it is done: The inhibition of PIk1 kinase activity can be measured using recombinant PIk1 protein expressed as an N-terminally histidine-tagged protein in SF9 insect cells and alpha casein as substrate. The PIk1 assay is run in 96 well plates by incubating 50 to 100 ng per well recombinant PIk1, 500 ng per well alpha casein (Sigma, # C-6780) as substrate, 10 µl of compound of invention (test compounds were dissolved as 20 mM solutions in dimethylsulfoxide (DMSO) and subsequently diluted), and 100 nM Li-ATP (including ^33P-ATP) in 100 µl of reaction buffer ([…], pH 7.5; 3 mM MgCl2; 3 mM MnCl2; 3 µM Na-Orthovanadat; 1 mM DTT; 1 µg/ml PEG 8000) for 80 minutes at 30°C. The reactions are terminated by adding 100 µl stopping buffer (2% H3PO4 for 5 minutes) and are washed 3 times with washing solution (0,9% NaCl). Determining ^33P incorporated into the protein substrate alpha casein, the detection is based on the adhesion of the phosphorylated protein to the surface of scintillator-coated flash plates (Perkin Elmer, USA; # SMP-200). Phosphorylation of alpha casein is measured by counting the radioactivity bound to the plate for 60 sec. using a plate reader (Perkin Elmer, USA; Wallac Microbeta). By this method, the IC50 value of the PIk1 inhibition is determined as described above. […]

A value given as a limit tells only on which side of the number the result lay.

T1 sequence (P53350 whole entry): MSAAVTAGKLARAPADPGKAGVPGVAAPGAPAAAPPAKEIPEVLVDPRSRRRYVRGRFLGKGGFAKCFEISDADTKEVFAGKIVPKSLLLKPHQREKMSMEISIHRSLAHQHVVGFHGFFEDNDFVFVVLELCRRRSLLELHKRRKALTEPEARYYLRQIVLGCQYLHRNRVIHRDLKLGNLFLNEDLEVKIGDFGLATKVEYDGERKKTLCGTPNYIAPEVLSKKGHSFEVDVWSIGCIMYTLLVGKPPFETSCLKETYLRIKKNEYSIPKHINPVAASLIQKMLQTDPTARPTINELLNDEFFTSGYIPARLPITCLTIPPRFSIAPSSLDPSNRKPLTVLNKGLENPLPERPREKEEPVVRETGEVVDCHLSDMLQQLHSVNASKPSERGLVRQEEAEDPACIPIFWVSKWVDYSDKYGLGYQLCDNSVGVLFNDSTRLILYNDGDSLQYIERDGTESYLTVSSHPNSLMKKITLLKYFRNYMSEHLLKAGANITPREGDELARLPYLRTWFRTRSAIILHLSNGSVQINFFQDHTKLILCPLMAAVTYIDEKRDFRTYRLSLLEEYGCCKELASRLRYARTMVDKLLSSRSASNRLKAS

What is called IC50 is the midpoint of a concentration-inhibition curve. For `COc1cc(C(=O)NC2CCN(C)CC2)ccc1Nc1ncc2c(cc(OCc3ccccc3)c(=O)n2C)n1` [Example 1, 4-{[7-(benzyloxy)-5-methyl-6-oxo-5,6-dihydropyrido[3,2-d]pyrimidin-2-yl]amino}-3-methoxy-N-(1-methylpiperidin-4-yl)benzamide], the IC50 was below 1000 nM. As for `C/C=C/c1c(OC)c(=O)n(C)c2cnc(Nc3ccc(C(=O)NC4CCN(C)CC4)cc3OC)nc12` [Example 2, 3-methoxy-4-({7-methoxy-5-methyl-6-oxo-8-[(E)-prop-1-en-1-yl]-5,6-dihydropyrido[3,2-d]pyrimidin-2-yl}amino)-N-(1-methylpiperidin-4-yl)benzamide], the figure is below 100 nM. As for `COc1cc(C(=O)NC2CCN(C)CC2)ccc1Nc1ncc2c(n1)c(-c1ccccc1)c(OC)c(=O)n2C` [Example 3, 3-methoxy-4-[(7-methoxy-5-methyl-6-oxo-8-phenyl-5,6-dihydropyrido[3,2-d]pyrimidin-2-yl)amino]-N-(1-methylpiperidin-4-yl)benzamide], the IC50 was below 100 nM.

In the case of `COc1cc(C(=O)NC2CCN(C)CC2)ccc1Nc1ncc2c(n1)c(-c1ccsc1)c(OC)c(=O)n2C` [Example 4, 3-methoxy-4-{[7-methoxy-5-methyl-6-oxo-8-(3-thienyl)-5,6-dihydro-pyrido[3,2-d]pyrimidin-2-yl]amino}-N-(1-methylpiperidin-4-yl)benzamide], the IC50 is below 10 nM. As to `COc1cc(C(=O)NC2CCN(C)CC2)ccc1Nc1ncc2c(n1)c(-c1cccs1)c(OC)c(=O)n2C` [Example 5, 3-methoxy-4-{[7-methoxy-5-methyl-6-oxo-8-(2-thienyl)-5,6-dihydro-pyrido[3,2-d]pyrimidin-2-yl]amino}-N-(1-methylpiperidin-4-yl)benzamide], the IC50 was below 100 nM. Regarding `COc1cc(C(=O)NC2CCN(C)CC2)ccc1Nc1ncc2c(n1)c(C1=CCCC1)c(OC)c(=O)n2C` [Example 6, 4-[(8-cyclopent-1-en-1-yl-7-methoxy-5-methyl-6-oxo-5,6-dihydropyrido[3,2-d]pyrimidin-2-yl)amino]-3-methoxy-N-(1-methylpiperidin-4-yl)benzamide], the IC50 is below 100 nM. On to `COc1cc(C(=O)NC2CCN(C)CC2)ccc1Nc1ncc2c(cc(OCC3CC3)c(=O)n2C)n1` [Example 7, 4-{[7-(cyclopropylmethoxy)-5-methyl-6-oxo-5,6-dihydropyrido[3,2-d]pyrimidin-2-yl]amino}-3-methoxy-N-(1-methylpiperidin-4-yl)benzamide], for which the IC50 was below 100 nM. Regarding `COc1cc(C(=O)NC2CCN(C)CC2)ccc1Nc1ncc2c(cc(OCC3CCCC3)c(=O)n2C)n1` [Example 8, 4-{[7-(cyclopentylmethoxy)-5-methyl-6-oxo-5,6-dihydropyrido[3,2-d]pyrimidin-2-yl]amino}-3-methoxy-N-(1-methylpiperidin-4-yl)benzamide], the IC50 is below 100 nM. Take `COc1cc(C(=O)NC2CCN(C)CC2)ccc1Nc1ncc2c(cc(OCC3CCCCC3)c(=O)n2C)n1` [Example 9, 4-{[7-(cyclohexylmethoxy)-5-methyl-6-oxo-5,6-dihydropyrido[3,2-d]pyrimidin-2-yl]amino}-3-methoxy-N-(1-methylpiperidin-4-yl)benzamide]: the IC50 was below 1000 nM.

Take `COc1cc(C(=O)NC2CCN(C)CC2)ccc1Nc1ncc2c(n1)c(-c1ccco1)c(OC)c(=O)n2C` [Example 10, 4-{[8-(2-furyl)-7-methoxy-5-methyl-6-oxo-5,6-dihydropyrido[3,2-d]pyrimidin-2-yl]amino}-3-methoxy-N-(1-methylpiperidin-4-yl)benzamide]: the IC50 is below 100 nM. `COc1cc(C(=O)NC2CCN(C)CC2)ccc1Nc1ncc2c(n1)c(-c1ccoc1)c(OC)c(=O)n2C` [Example 11, 4-{[8-(3-furyl)-7-methoxy-5-methyl-6-oxo-5,6-dihydropyrido[3,2-d]pyrimidin-2-yl]amino}-3-methoxy-N-(1-methylpiperidin-4-yl)benzamide]: the IC50 is below 100 nM. Consider `COc1cc(C(=O)NC2CCN(C)CC2)ccc1Nc1ncc2c(cc(OCC3CCOC3)c(=O)n2C)n1` (stereo not shown) [Example 12, 3-methoxy-4-{[5-methyl-6-oxo-7-(tetrahydrofuran-3-ylmethoxy)-5,6-dihydropyrido[3,2-d]pyrimidin-2-yl]amino}-N-(1-methylpiperidin-4-yl)benzamide], for which the IC50 is below 1000 nM.

For `COc1cc(C(=O)NC2CCN(C)CC2)ccc1Nc1ncc2c(cc(OCC3CCCO3)c(=O)n2C)n1` (stereo not shown) [Example 13, 3-methoxy-4-{[5-methyl-6-oxo-7-(tetrahydrofuran-2-ylmethoxy)-5,6-dihydropyrido[3,2-d]pyrimidin-2-yl]amino}-N-(1-methylpiperidin-4-yl)benzamide], the IC50 is below 1000 nM. As for `COc1cc(C(=O)NC2CCN(C)CC2)ccc1Nc1ncc2c(n1)c(C1CCCC1)c(OC)c(=O)n2C` [Example 14, 4-[(8-cyclopentyl-7-methoxy-5-methyl-6-oxo-5,6-dihydropyrido[3,2-d]pyrimidin-2-yl)amino]-3-methoxy-N-(1-methylpiperidin-4-yl)benzamide], the figure is below 100 nM. `COc1cc(C(=O)NC2CCN(C)CC2)ccc1Nc1ncc2c(n1)c(C1=C(C)CCC1)c(OC)c(=O)n2C` [Example 15, 3-methoxy-4-{[7-methoxy-5-methyl-8-(2-methylcyclopent-1-en-1-yl)-6-oxo-5,6-dihydropyrido[3,2-d]pyrimidin-2-yl]amino}-N-(1-methylpiperidin-4-yl)benzamide]: the IC50 is below 1000 nM. As for `COc1cc(C(=O)NC2CCN(C)CC2)ccc1Nc1ncc2c(n1)c(Cl)c(OC)c(=O)n2C` [Example 16, 4-[(8-chloro-7-methoxy-5-methyl-6-oxo-5,6-dihydropyrido[3,2-d]pyrimidin-2-yl)amino]-3-methoxy-N-(1-methylpiperidin-4-yl)benzamide], the figure is below 1000 nM; as for `COc1cc(C(=O)NC2CCN(C)CC2)ccc1Nc1ncc2c(n1)c(C1=C(C)CCCC1)c(OC)c(=O)n2C` [Example 17, 3-methoxy-4-{[7-methoxy-5-methyl-8-(2-methylcyclohex-1-en-1-yl)-6-oxo-5,6-dihydropyrido[3,2-d]pyrimidin-2-yl]amino}-N-(1-methylpiperidin-4-yl)benzamide], below 1000 nM; as for `C/C=C/c1c(OCC)c(=O)n(C)c2cnc(Nc3ccc(C(=O)NC4CCN(C)CC4)cc3OC)nc12` [Example 18, 4-({7-ethoxy-5-methyl-6-oxo-8-[(1E)-prop-1-en-1-yl]-5,6-dihydropyrido[3,2-d]pyrimidin-2-yl}amino)-3-methoxy-N-(1-methylpiperidin-4-yl)benzamide], below 100 nM.

With `COc1cc(C(=O)NC2CCN(C)CC2)ccc1Nc1ncc2c(n1)c(C1CC1)c(OC)c(=O)n2C` [Example 19, 4-[(8-cyclopropyl-7-methoxy-5-methyl-6-oxo-5,6-dihydropyrido[3,2-d]pyrimidin-2-yl)amino]-3-methoxy-N-(1-methylpiperidin-4-yl)benzamide], the half-inhibitory concentration (IC50) is below 100 nM.

Turning to `C/C=C/c1c(OC)c(=O)n(C)c2cnc(Nc3ccc(C(=O)NCc4cncn4C)cc3OC)nc12` [Example 20, 3-methoxy-4-({7-methoxy-5-methyl-6-oxo-8-[(1E)-prop-1-en-1-yl]-5,6-dihydropyrido[3,2-d]pyrimidin-2-yl}amino)-N-[(1-methyl-1H-imidazol-5-yl)methyl]benzamide], the IC50 was below 100 nM. As for `COc1cc(C(=O)NC2CCN(C)CC2)ccc1Nc1ncc2c(cc(OC)c(=O)n2C)n1` [Example 21, 3-methoxy-4-[(7-methoxy-5-methyl-6-oxo-5,6-dihydropyrido[3,2-d]pyrimidin-2-yl)amino]-N-(1-methylpiperidin-4-yl)benzamide], the figure is below 1000 nM; as for `C=C(C)c1c(OC)c(=O)n(C)c2cnc(Nc3ccc(C(=O)NC4CCN(C)CC4)cc3OC)nc12` [Example 22, 4-[(8-isopropenyl-7-methoxy-5-methyl-6-oxo-5,6-dihydropyrido[3,2-d]pyrimidin-2-yl)amino]-3-methoxy-N-(1-methylpiperidin-4-yl)benzamide], below 100 nM. As for `COc1cc(C(=O)NC2CCN(C)CC2)ccc1Nc1ncc2c(n1)c(CC1=CCOC1)c(OC)c(=O)n2C` [Example 23, 4-{[8-(2,5-dihydrofuran-3-ylmethyl)-7-methoxy-5-methyl-6-oxo-5,6-dihydropyrido[3,2-d]pyrimidin-2-yl]amino}-3-methoxy-N-(1-methylpiperidin-4-yl)benzamide], the IC50 was below 1000 nM. Turning to `COc1cc(C(=O)NC2CCN(C)CC2)ccc1Nc1ncc2c(n1)c(C(C)C)c(OC)c(=O)n2C` [Example 24, 4-[(8-isopropyl-7-methoxy-5-methyl-6-oxo-5,6-dihydropyrido[3,2-d]pyrimidin-2-yl)amino]-3-methoxy-N-(1-methylpiperidin-4-yl)benzamide], the IC50 was below 1000 nM. As to `C/C=C/c1c(OC)c(=O)n(C)c2cnc(Nc3ccc(C(=O)NC4CCN(CC)CC4)cc3OC)nc12` [Example 25, N-(1-ethylpiperidin-4-yl)-3-methoxy-4-({7-methoxy-5-methyl-6-oxo-8-[(1E)-prop-1-en-1-yl]-5,6-dihydropyrido[3,2-d]pyrimidin-2-yl}amino)benzamide], the IC50 is below 1000 nM.

Source of the values: EP2100894A1, “Pyridopyrimidines used as Plk1 (polo-like kinase) inhibitors” (4SC AG, priority 2008, dated 2009).
